Results: patent US9511058B2, “Methods for using carboxamide, sulfonamide and amine compounds” (Rigel Pharmaceuticals, Inc., priority 2010, dated 2016)
Blank lines part the entries; values can stand above or below the compound they belong to.

Molecular target: AMPK
Assay: AMPK activation, enzyme-linked immunosorbent assay
Type: biochemical
[1] = compounds of Table 5 (Table 10)

Compound: O=C(c1ccncc1)N1CC2CC1CN2C(=O)c1nc2ccc(OC3CCN(c4ccc(C(F)(F)F)cc4)CC3)cc2o1 (stereo not shown) [3-11, (5-isonicotinoyl-2,5-diazabicyclo[2.2.1]heptan-2-yl)(6-(1-(4-(trifluoromethyl)phenyl)piperidin-4-yloxy)benzo[d]oxazol-2-yl)methanone]
EC50 (compounds of Table 3 (Table 8)): 0.1 to 1 µM

Compound: O=C(NC1CCN(Cc2ccc(C(F)(F)F)cc2)CC1)c1ccc2[nH]c3c(c2c1)CN(Cc1ccc(C(F)(F)F)cc1)CC3 [2-13, N-(1-(4-trifluoromethyl-benzyl)piperidin-4-yl)-2-(4-(trifluoro-methyl)benzyl)-2,3,4,5-tetrahydro-1H-pyrido[4,3-b]indole-8-carboxamide]
EC50 (compounds of Table 2 (Table 7)): < 0.5 µM

Compound: O=C(NC1CCN(C(=O)c2ccc(C(F)(F)F)cc2)CC1)c1ccc2[nH]c3c(c2c1)CN(c1ccc(F)cc1)CC3 [2-41, 2-(4-fluorophenyl)-N-(1-(4-(trifluoromethyl)benzoyl)piperidin-4-yl)-2,3,4,5-tetrahydro-1H-pyrido[4,3-b]indole-8-carboxamide]
EC50 (compounds of Table 2 (Table 7)): 10 to 50 µM

Compound: N#Cc1ccc(CN2CC3CC2CN3C(=O)c2nc3ccc(OC4CCN(c5ccc(C(F)(F)F)cc5)CC4)cc3o2)cc1 (stereo not shown) [3-10, 4-((5-(6-(1-(4-(trifluoromethyl)phenyl)piperidin-4-yloxy)benzo[d]oxazole-2-carbonyl)-2,5-diazabicyclo[2.2.1]heptan-2-yl)methyl)benzonitrile]
EC50 (compounds of Table 3 (Table 8)): 0.1 to 1 µM

Compound: O=C(NC1CCN(Cc2ccncc2)CC1)c1cc(OC2CCN(c3ccc(C(F)(F)F)cc3)CC2)ccn1 [1-13, N-(1-(pyridin-4-ylmethyl)piperidin-4-yl)-4-(1-(4-(trifluoromethyl)phenyl)piperidin-4-yloxy)picolinamide]
EC50 (compounds of Table 1 (Table 6)): 0.1 to 0.5 µM

Compound: O=C(NC1CCN(Cc2ccncc2)CC1)c1ccc(OC2CCN(c3ccc(C(F)(F)F)cc3)CC2)cn1 [1-3, N-(1-(pyridin-4-ylmethyl)piperidin-4-yl)-5-(1-(4-(trifluoromethyl)phenyl)piperidin-4-yloxy)picolinamide]
EC50 (compounds of Table 1 (Table 6)): < 0.1 µM

Compound: N#Cc1ccc(C(=O)N2CCC(NC(=O)c3nc4ccc(OC5CCN(c6ccc(C(F)(F)F)cc6)CC5)cc4o3)CC2)cc1 [3-6, N-(1-(4-cyanobenzoyl)piperidin-4-yl)-6-(1-(4-(trifluoromethyl)phenyl)piperidin-4-yloxy)benzo[d]oxazole-2-carboxamide]
EC50 (compounds of Table 3 (Table 8)): < 0.1 µM

Compound: CC(C)(C)OC(=O)N1CCC(NC(=O)c2ccnc(OC3CCN(c4ccc(C(F)(F)F)cc4)CC3)c2)CC1 [1-15, tert-butyl 4-(2-(1-(4-(trifluoromethyl)phenyl)piperidin-4-yloxy)isonicotinamido)piperidine-1-carboxylate]
EC50 (compounds of Table 1 (Table 6)): 1 to 5 µM

Compound: Cc1c(C(=O)NC2CCN(Cc3cccc(C#N)c3)CC2)oc2cc(OC3CCN(c4ccc(C(F)(F)F)cc4)CC3)ccc12 [1-66, N-(1-(3-cyanobenzyl)piperidin-4-yl)-3-methyl-6-(1-(4-(trifluoromethyl)phenyl)piperidin-4-yloxy)benzofuran-2-carboxamide]
EC50 (compounds of Table 1 (Table 6)): < 0.1 µM

Compound: O=C(N[C@@H]1CCNC1)c1cc2cc(OC3CCN(c4ccc(C(F)(F)F)cc4)CC3)ccc2o1 [1-121, (R)-N-(pyrrolidin-3-yl)-5-(1-(4-(trifluoromethyl)phenyl)piperidin-4-yloxy)benzofuran-2-carboxamide]
EC50 (compounds of Table 1 (Table 6)): > 10 µM

Compound: O=C(NC1CCNCC1)c1cc2cc(OC3CCN(c4ccc(C(F)(F)F)cc4)CC3)ccc2s1 [1-150, N-(piperidin-4-yl)-5-(1-(4-(trifluoromethyl)phenyl)piperidin-4-yloxy)benzo[b]thiophene-2-carboxamide]
EC50 (compounds of Table 1 (Table 6)): 1 to 5 µM

Compound: O=C(N[C@@H]1CCN(Cc2ccncc2)C1)c1cc2cc(OC3CCN(c4ccc(C(F)(F)F)cc4)CC3)ccc2o1 [1-122, (R)-N-(1-(pyridin-4-ylmethyl)pyrrolidin-3-yl)-5-(1-(4-(trifluoromethyl)phenyl)piperidin-4-yloxy)benzofuran-2-carboxamide]
EC50 (compounds of Table 1 (Table 6)): 0.1 to 0.5 µM

Compound: Cc1c(C(=O)NC2CCN(Cc3ccc(F)cc3)CC2)oc2cc(OC3CCN(c4ccc(C(F)(F)F)cc4)CC3)ccc12 [1-63, N-(1-(4-fluorobenzyl)piperidin-4-yl)-3-methyl-6-(1-(4-(trifluoromethyl)phenyl)piperidin-4-yloxy)benzofuran-2-carboxamide]
EC50 (compounds of Table 1 (Table 6)): < 0.1 µM

Compound: N#Cc1ccccc1CN1CCC(NC(=O)c2cc3ccc(OC4CCN(c5ccc(C(F)(F)F)cc5)CC4)cc3s2)CC1 [1-146, N-(1-(2-cyanobenzyl)piperidin-4-yl)-6-(1-(4-(trifluoromethyl)phenyl)piperidin-4-yloxy)benzo[b]thiophene-2-carboxamide]
EC50 (compounds of Table 1 (Table 6)): 0.1 to 0.5 µM

Compound: N#Cc1ccc(CN2CCC(NC(=O)c3ccc(C(=O)NC4CCN(Cc5ccc(C(F)(F)F)cc5)CC4)cc3)CC2)cc1 [3-31, N^1-(1-(4-cyanobenzyl)piperidin-4-yl)-N^4-(1-(4-(trifluoromethyl)benzyl)piperidin-4-yl)terephthalamide]
EC50 (compounds of Table 3 (Table 8)): < 0.1 µM

Compound: O=C(N[C@@H]1CCN(Cc2ccc(F)cc2)C1)c1ccc(OC2CCN(c3ccc(C(F)(F)F)cc3)CC2)cn1 [1-34, (R)-N-(1-(4-fluorobenzyl)pyrrolidin-3-yl)-5-(1-(4-(trifluoromethyl)phenyl)piperidin-4-yloxy)picolinamide]
EC50 (compounds of Table 1 (Table 6)): 0.5 to 1 µM

Compound: COc1ccc(CN2CCC(Oc3ccc(C(=O)N4CCN(C(=O)OC(C)(C)C)CC4)cc3)CC2)cc1 [5-96, tert-butyl 4-(4-(1-(4-methoxybenzyl)piperidin-4-yloxy)benzoyl)piperazine-1-carboxylate]
EC50 [1]: 1 to 10 µM

Compound: O=C(NC1CN(Cc2ccncc2)C1)c1ccc(OC2CCN(c3ccc(C(F)(F)F)cc3)CC2)cn1 [1-42, N-(1-(pyridin-4-ylmethyl)azetidin-3-yl)-5-(1-(4-(trifluoromethyl)phenyl)piperidin-4-yloxy)picolinamide]
EC50 (compounds of Table 1 (Table 6)): 1 to 5 µM

Compound: CC(C)(C)OC(=O)N1CCC(NC(=O)c2ccc(OC3CCN(c4ccc(C(F)(F)F)cc4)CC3)c(F)c2)CC1 [5-26, tert-butyl 4-(3-fluoro-4-(1-(4-(trifluoromethyl)phenyl)piperidin-4-yloxy)benzamido)piperidine-1-carboxylate]
EC50 [1]: < 1 µM

Compound: CC(C)(C)OC(=O)N1CCC(NC(=O)c2cc3ccc(OC4CCN(c5ccc(C(F)(F)F)cc5)CC4)cc3s2)CC1 [1-140, tert-butyl 4-(6-(1-(4-(trifluoromethyl)phenyl)piperidin-4-yloxy)benzo[b]thiophene-2-carboxamido)piperidine-1-carboxylate]
EC50 (compounds of Table 1 (Table 6)): 0.5 to 1 µM

Compound: CN(C(=O)c1cc2cc(OC3CCN(c4ccc(C(F)(F)F)cc4)CC3)ccc2o1)C1CCN(Cc2cccc(C#N)c2)CC1 [1-110, N-(1-(3-cyanobenzyl)piperidin-4-yl)-N-methyl-5-(1-(4-(trifluoromethyl)phenyl)piperidin-4-yloxy)benzofuran-2-carboxamide]
EC50 (compounds of Table 1 (Table 6)): < 0.1 µM

Compound: O=C(NC1CCN(C(=O)c2ccncc2)CC1)c1cc2ccc(OC3CCN(c4ccc(C(F)(F)F)cc4)CC3)cc2o1 [1-112, N-(1-isonicotinoylpiperidin-4-yl)-6-(1-(4-(trifluoromethyl)phenyl)piperidin-4-yloxy)benzofuran-2-carboxamide]
EC50 (compounds of Table 1 (Table 6)): < 0.1 µM

Compound: O=C(NC1CCN(Cc2cccnc2)CC1)c1ccc2[nH]c3c(c2c1)CN(c1ccc(F)cc1)CC3 [2-36, 2-(4-fluorophenyl)-N-(1-(pyridin-3-ylmethyl)piperidin-4-yl)-2,3,4,5-tetrahydro-1H-pyrido [4,3-b]indole-8-carboxamide]
EC50 (compounds of Table 2 (Table 7)): > 100 µM

Further lines, results first:

EC50 [1]: < 1 µM
Compound: O=C(NC1CCN(Cc2ccccc2)CC1)c1ccc(OC2CCN(Cc3ccc(F)c(F)c3)CC2)c(Cl)c1 [5-74, N-(1-benzylpiperidin-4-yl)-3-chloro-4-(1-(3,4-difluorobenzyl)piperidin-4-yloxy)benzamide]

EC50 [1]: 1 to 10 µM
Compound: N#Cc1cccc(CN2CCC(Oc3cccc(C(=O)NC4CCN(Cc5ccccc5)CC4)c3)CC2)c1 [5-89, N-(1-benzylpiperidin-4-yl)-3-(1-(3-cyanobenzyl)piperidin-4-yloxy)benzamide]

EC50 (compounds of Table 1 (Table 6)): 1 to 5 µM
Compound: NC(=O)c1ccc(CN2CCC(Oc3ccc4oc(C(=O)NC5CCN(Cc6ccncc6)CC5)cc4c3)CC2)cc1 [1-131, 5-(1-(4-carbamoylbenzyl)piperidin-4-yloxy)-N-(1-(pyridin-4-ylmethyl)piperidin-4-yl)benzofuran-2-carboxamide]

EC50 (compounds of Table 2 (Table 7)): 5 to 10 µM
Compound: O=C(NC1CCN(Cc2cccnc2)CC1)c1ccc2[nH]c3c(c2c1)CN(Cc1ccc(F)cc1)CC3 [2-8, 2-(4-fluorobenzyl)-N-(1-(pyridin-3-ylmethyl)piperidin-4-yl)-2,3,4,5-tetrahydro-1H-pyrido[4,3-b]indole-8-carboxamide]

EC50 [1]: < 1 µM
Compound: O=C(NC1CCN(Cc2ccccc2)CC1)c1ccc(OC2CCN(c3ccc(C(F)(F)F)cc3)CC2)c(F)c1 [5-23, N-(1-benzylpiperidin-4-yl)-3-fluoro-4-(1-(4-(trifluoromethyl)phenyl)piperidin-4-yloxy)benzamide]

EC50 (compounds of Table 1 (Table 6)): < 0.1 µM
Compound: O=C(NC1CCN(Cc2ccccc2)CC1)c1cc2cc(OC3CCN(c4ccc(C(F)(F)F)cc4)CC3)ccc2o1 [1-75, N-(1-benzylpiperidin-4-yl)-5-(1-(4-(trifluoromethyl)phenyl)piperidin-4-yloxy)benzofuran-2-carboxamide]

EC50 (compounds of Table 3 (Table 8)): 1 to 10 µM
Compound: O=C(NC1CCN(Cc2cccnc2)CC1)c1ccc2c(c1)CN(Cc1ccc(F)cc1)CC2 [3-35, 2-(4-fluorobenzyl)-N-(1-(pyridin-3-ylmethyl)piperidin-4-yl)-1,2,3,4-tetrahydroisoquinoline-7-carboxamide]

EC50 [1]: 20 to 50 µM
Compound: O=C(NC1CCN(Cc2ccccc2)CC1)c1cccc(OC2CCN(Cc3ccccc3)CC2)c1 [5-13, N-(1-benzylpiperidin-4-yl)-3-(1-benzylpiperidin-4-yloxy)benzamide]

EC50 [1]: < 1 µM
Compound: O=C(NC1CCN(Cc2ccccc2)CC1)c1ccc(OC2CCN(Cc3ccccc3)CC2)c(Cl)c1 [5-14, N-(1-benzylpiperidin-4-yl)-4-(1-benzylpiperidin-4-yloxy)-3-chlorobenzamide]

EC50 [1]: < 1 µM
Compound: O=C(NC1CCN(Cc2ccc(Cl)cc2)CC1)c1ccc(OC2CCN(Cc3ccc(Cl)c(Cl)c3)CC2)c(F)c1 [5-80, N-(1-(4-chlorobenzyl)piperidin-4-yl)-4-(1-(3,4-dichlorobenzyl)piperidin-4-yloxy)-3-fluorobenzamide]

EC50 [1]: 1 to 10 µM
Compound: CC(c1ccccc1)N1CCC(Oc2ccc(C(=O)NC3CCN(Cc4ccccc4)CC3)cc2F)CC1 (stereo not shown) [5-21, N-(1-benzylpiperidin-4-yl)-3-fluoro-4-(1-(1-phenylethyl)piperidin-4-yloxy)benzamide]
